From patent publication US6844345B2, “Piperazine derivatives” (priority 2001, dated 2005)
Like-named read-outs stand apart in the source and are kept apart here.

Tests used:
[1] = molecular target: T1, 5-HT2C receptor (Homo sapiens, UniProt P28335); assay: Functional activity, FLIPR calcium assay in CHO cells expressing human 5-HT2C; type: cell-based; design: expressed in transfected cells; host or cells: CHO cells; details: for h5-HT2c Relative Efficacy: maximum fluorescent signal relative to 10 μM 5-HT (defined as 100%)
T1 sequence (P28335 33-458): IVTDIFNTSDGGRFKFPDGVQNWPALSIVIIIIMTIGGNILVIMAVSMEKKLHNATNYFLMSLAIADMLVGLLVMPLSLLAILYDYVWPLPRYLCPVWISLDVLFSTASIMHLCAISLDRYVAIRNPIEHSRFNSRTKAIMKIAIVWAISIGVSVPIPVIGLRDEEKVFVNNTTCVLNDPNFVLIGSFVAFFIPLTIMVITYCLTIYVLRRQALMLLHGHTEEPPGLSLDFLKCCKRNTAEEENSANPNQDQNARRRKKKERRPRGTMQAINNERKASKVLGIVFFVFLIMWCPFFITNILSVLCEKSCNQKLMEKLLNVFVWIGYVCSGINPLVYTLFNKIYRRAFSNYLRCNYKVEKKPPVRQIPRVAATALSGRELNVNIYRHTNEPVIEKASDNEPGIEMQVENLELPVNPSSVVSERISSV
Procedure: (§1) The functional activity of compounds of formula (I) was assayed using a Fluorimetric Imaging Plate reader (FLIPR). CHO cells expressing the human 5-HT2C or human 5-HT2A receptors were counted and plated into standard 96 well microtitre plates on the day before testing to give a confluent monolayer. The cells were then dye loaded with the calcium sensitive dye, Fluo-3-AM. Unincorporated dye was removed using an automated cell washer to leave a total volume of 100 μL/well of assay buffer (Hanks balanced salt solution containing 20 mM Hepes and 2.5 mM probenecid). The drug (dissolved in 50 μL of the assay buffer) was added at a rate of 70 μL/sec to each well of the FLIPR 96 well plate during fluorescence measurements. The measurements were taken at 1 sec intervals and the maximum fluorescent signal was measured (approx. 10-15 secs after drug addition) and compared with the response produced by 10 μM 5-HT (defined as 100%) to which it was expressed as a percentage response (relative efficacy). Dose response curves were constructed using Graphpad Prism (Graph Software Inc.).

[2] = molecular target: T2, 5-HT2A receptor (Homo sapiens, UniProt P28223); assay: Functional activity, FLIPR calcium assay in CHO cells expressing human 5-HT2A; type: cell-based; design: expressed in transfected cells; host or cells: CHO cells; details: for h5-HT2A Relative Efficacy: maximum fluorescent signal relative to 10 μM 5-HT (defined as 100%)
Procedure: as §1

[3] = molecular target: T2, 5-HT2A receptor; assay: Binding to 5-HT2A receptor, [125I]-DOI radioligand, Method (c); design: expressed in transfected cells; host or cells: CHO cell line; details: CHO cell line, read-out: Ki (2A)
Procedure: (§2) The binding of compounds of formula (I) to serotonin receptors was determined in vitro by standard methods. The preparations were investigated in accordance with the assays given hereinafter.
Method (c): For the binding to the 5-HT2A receptor the 5-HT2A receptors were radiolabeled with [^125I]-DOI. The affinity of the compounds for 5-HT2A receptors in a CHO cell line was determined according to the procedure of D. J. McKenna and S. J. Peroutka, J. Neurosci., 1989, 9, 3482-90.

[4] = molecular target: T3, human 5-HT2B receptors (Homo sapiens, UniProt P41595); assay: Binding to 5-HT2B receptor, [3H]-5-HT radioligand, Method (b); details: human receptor in CHO cell line, read-out: Ki (2B)
T3 construct: expressed in transfected cells; host or cells: CHO cell line
Procedure: as §2
Method (b): For the binding to the 5-HT2B receptor the 5-HT2B receptors were radiolabeled with [^3H]-5-HT. The affinity of the compounds for human 5-HT2B receptors in a CHO cell line was determined according to the procedure of K. Schmuck, C. Ullmer, P. Engels and H. Lubbert, FEBS Lett., 1994, 342, 85-90.

[5] = molecular target: T1, 5-HT2C receptor; assay: Binding to 5-HT2C receptor, [3H]-5-HT radioligand, Method (a); design: expressed in transfected cells; host or cells: CHO cell line; details: CHO cell line, read-out: Ki (2C)
Procedure: as §2
Method (a): For the binding to the 5-HT2C receptor the 5-HT2C receptors were radiolabeled with [^3H]-5-HT. The affinity of the compounds for 5-HT2C receptors in a CHO cell line was determined according to the procedure of D. Hoyer, G. Engel and H. O. Kalkman, European J. Pharmacol., 1985, 118, 13-23.

[6] = FLIPR, CHO cells, Fluo-3-AM, read-out: h5-HT2c EC50
[7] = FLIPR, CHO cells, Fluo-3-AM, read-out: h5-HT2A EC50

T2 sequence (P28223 whole entry): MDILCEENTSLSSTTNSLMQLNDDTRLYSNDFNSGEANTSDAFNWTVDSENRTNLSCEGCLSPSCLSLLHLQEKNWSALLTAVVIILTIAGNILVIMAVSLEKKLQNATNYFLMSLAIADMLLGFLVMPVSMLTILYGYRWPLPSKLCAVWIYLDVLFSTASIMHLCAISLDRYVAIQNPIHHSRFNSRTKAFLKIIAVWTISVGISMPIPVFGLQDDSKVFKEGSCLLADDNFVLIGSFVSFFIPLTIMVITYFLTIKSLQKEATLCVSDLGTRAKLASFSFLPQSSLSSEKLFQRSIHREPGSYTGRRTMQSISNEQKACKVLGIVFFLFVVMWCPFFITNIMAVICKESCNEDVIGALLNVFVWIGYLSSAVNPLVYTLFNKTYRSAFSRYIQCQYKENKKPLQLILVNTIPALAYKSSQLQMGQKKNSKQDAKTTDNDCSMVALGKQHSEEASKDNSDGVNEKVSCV
T3 sequence (P41595 whole entry): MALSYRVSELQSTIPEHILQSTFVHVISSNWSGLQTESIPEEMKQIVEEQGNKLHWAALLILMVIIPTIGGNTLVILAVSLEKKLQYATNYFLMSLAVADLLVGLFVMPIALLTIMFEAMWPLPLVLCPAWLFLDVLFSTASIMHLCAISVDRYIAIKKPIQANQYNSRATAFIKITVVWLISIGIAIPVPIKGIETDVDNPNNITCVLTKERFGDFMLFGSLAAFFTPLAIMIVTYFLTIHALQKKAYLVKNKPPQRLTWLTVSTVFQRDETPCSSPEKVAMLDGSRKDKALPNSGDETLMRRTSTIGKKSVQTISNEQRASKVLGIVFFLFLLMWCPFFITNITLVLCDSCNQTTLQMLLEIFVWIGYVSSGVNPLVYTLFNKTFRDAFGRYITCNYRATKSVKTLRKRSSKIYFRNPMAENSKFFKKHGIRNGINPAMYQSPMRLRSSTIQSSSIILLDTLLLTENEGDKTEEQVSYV

melting point	Compound	EC50 [1, 6]	h5-HT2c Relative Efficacy [1]	EC50 [2, 7]	h5-HT2A Relative Efficacy [2]	further results
241 °C (dec.)	Cc1cc2c(cc1Br)cc1n2[C@H](C)CNC1.Cl					
245 °C (dec.)	Cc1ccc2cc3n(c2c1)[C@H](C)CNC3.Cl					
234 to 237 °C (dec.)	C[C@@H]1CNCc2cc3c(Cl)cccc3n21.Cl					
232 °C	C[C@@H]1CNCc2cc3cc(Br)c(F)cc3n21.Cl					
123 to 125 °C	C[C@@H]1CNCc2cc3ccc(C(F)(F)F)cc3n21 [Example 2, (R)-4-Methyl-7-trifluoromethyl-1,2,3,4-tetrahydro-pyrazino[1,2-a]indole]					

More lines, now with the values behind:

Compound	melting point	EC50 [1, 6]	h5-HT2c Relative Efficacy [1]	EC50 [2, 7]	h5-HT2A Relative Efficacy [2]	further results
CCc1cccc2cc3n(c12)[C@H](C)CNC3 [Example 1, (R)-6-Ethyl-4-methyl-1,2,3,4-tetrahydro-pyrazino[1,2-a]indole]		22 nM	83%	640 nM	23%	Ki [3]: 205 nM; Ki [4]: 86 nM; Ki [5]: 5 nM
Cc1c2n(c3c(C)c(Cl)ccc13)[C@H](C)CNC2.O=C(O)C(=O)O [Example 14, (R)-7-Chloro-4,6,10-trimethyl-1,2,3,4-tetrahydro-pyrazino[1,2-a]indole oxalate]		0.4 nM	88%	536 nM	34%	
C[C@@H]1CNCc2cc3cccc(OC(F)(F)F)c3n21 [Example 17, (R)-4-Methyl-6-trifluoromethoxy-1,2,3,4-tetrahydro-pyrazino[1,2-a]indole]	58 to 60 °C					
C[C@@H]1CNCc2cc3ccc(Cl)cc3n21 [Example 20, (R)-7-Chloro-4-methyl-1,2,3,4-tetrahydro-pyrazino[1,2-a]indole]		7 nM	91%	163 nM	49%	Ki [3]: 23 nM; Ki [4]: 44 nM; Ki [5]: 2.8 nM
Cc1ccc(C)c2c1cc1n2[C@H](C)CNC1 [Example 21, (R)-4,6,9-Trimethyl-1,2,3,4-tetrahydro-pyrazino[1,2-a]indole]			80%		76%	EC50 [1]: 5 nM; EC50 [2]: 121 nM
